Source: a melting point compilation (Tetko et al.; mined from patent text by program, amines drawn as free bases though some values may be those of a salt)

| melting point [°C] | SMILES |
| --- | --- |
| 197 to 199 | CC(=O)NC[C@H]1CN(c2ccc(-c3ncon3)c(F)c2)C(=O)O1 |
| 167 to 168 | CSc1ccc(NC(=O)C(C#N)C(=O)c2cccn2C)cc1 (stereo unspecified) |
| 255 to 256 | O=C(O)c1ccc2c(c1)nc(-c1ccc(Oc3cccc(Br)c3)cc1)n2C1CCCCC1 |
| 79 to 81 | Cc1ccc(C(=O)C(F)(F)S(=O)(=O)c2ccccc2)cc1 |
| 222 to 225 | Cc1ccc2nc(N)nc(N)c2c1-c1cc(C(F)(F)F)cc(C(F)(F)F)c1 |
| 177 to 181 | Cc1ncc2cc(-c3c(Cl)cccc3Cl)c(NC(=O)N(C)C)nc2n1 |
| 108 to 109 | CC(C)(C)OC(=O)N1CCN(Cc2ccccc2)C[C@H]1C(c1ccccc1)c1ccccc1 |
| 160 to 162 | O=S(=O)(Cc1ccccc1)c1nc[nH]n1 |
| 85 to 89 | COC(=O)C(Sc1ccc(C)cc1)(C1=NCCCS1)[N+](=O)[O-] (stereo unspecified) |
| 305 to 310 | O=C(O)c1cccc2nc3ccc4[nH]ncc4c3nc12 |
| 125 to 126 | CC1(c2ccc(O)cc2)CC1(Cl)Cl (stereo unspecified) |
| 147 | O=C(COc1ccccc1)N[C@@H](Cc1ccc([N+](=O)[O-])cc1)C(=O)O |
| 117 | CCOC(=O)C(=CNc1cc(OCc2ccccc2)c(OCc2ccccc2)cn1)C(=O)OCC |
| 110 to 112 | CON=C1C(C)(C)c2cc3nc(SCc4ncc(C)c(OC)c4C)[nH]c3cc2C1(C)C |
| 141 to 143 | CC(C)c1oc(-c2ccccc2)nc1CC(=O)O |
| 79 to 82 | CCCOc1cc(CCCOc2c(CC(=O)O)cccc2OC)n(Cc2ccccc2OC)n1 |
| 268 to 273 | CC1CC(=O)NN=C1c1ccc(O)cc1 (stereo unspecified) |
| 84 to 85 | O=C1CCCC(=O)N1C(Sc1nnn[nH]1)c1ccccc1 (stereo unspecified) |
| 186 to 188 | O=C(O)c1ccc(S(=O)(=O)Oc2ccc(-c3ccc(-c4c(Cc5ccccc5)oc5ccccc45)cc3)cc2)cc1 |
| 91 to 96 | C[C@H](c1ccccc1)n1c(=O)c2c(N3CCNCC3)cc(Cl)cc2n(Cc2ccccc2)c1=O |
| 247 to 248 | COC(=O)Nc1cn2cc(S(=O)c3ccccc3)ccc2n1 (stereo unspecified) |
| 201 to 202 | CN1CC(c2ccc(Nc3cc(-c4cccc(N5Cc6cc(C(C)(C)C)ccc6C5=O)c4CO)cn(C)c3=O)nc2)C1 |
| 185 to 186 | COc1cc(COc2ccc3nc(NC(=O)OCCN(C)C)cn3n2)cc(OC)c1OC |
| 118 | COc1cc2c(cc1OCc1ccccc1)C(C1(c3ccccc3OC)CC1)N(C)CC2 (stereo unspecified) |
| 203 to 205 | Clc1ccc2nc(-c3ccsc3)cn2n1 |
| 64 to 66 | COC(=O)C1=C(Cl)/C(=N/OS(C)(=O)=O)CC(c2ccc(Cl)c(OC)c2F)N1 (stereo unspecified) |
| 58 to 59 | CCCCCCCCCCCCOC(=O)c1cc(N)ccc1[N+](=O)[O-] |
| 31 | O=S=Nc1ccc(C(=O)Cl)cc1 |

The next lines start with the compound.

| SMILES | melting point [°C] |
| --- | --- |
| C=CCNc1nc(NCCOC)nc2c(C)csc12 | 87 to 88 |
| C(=Cc1ccccc1)CN1CCN(C2c3ccccc3Sc3ccccc32)CC1 | 115 to 117 |
| CCOC(=O)c1cnn2ccc3c(c12)CCO3 | 138 to 139 |
| OCc1cc(Br)cnc1Cl | 86.7 to 87.5 |
| CCCNc1cn(-c2cccnc2)nc1Cl | 92 to 94 |
| CCCCCCCCCCCCCCCCCCNc1nc(N)nc(N)n1 | 91 |
| CCCCCCC(=N)NC(=S)Nc1ccc(SC)cc1 | 100 to 101 |
| COC(=O)c1cccc2nc(SCCCCCC(=O)Nc3c(SC)cc(C)nc3SC)oc12 | 141 to 142 |
| COc1ccccc1N1CCN(CCN(C(=O)C2CCCCC2)c2ccccc2OCC(F)(F)F)CC1 | 110 to 112 |
| Cc1c(F)c(F)c(N)c2c(=O)c(C(=O)O)cn(-c3nc(N)c(F)cc3F)c12 | 250 |
| Cn1nc(Cl)cc(Nc2ccncn2)c1=O | 233 to 235 |
| CC(=O)OCc1nc([N+](=O)[O-])c(Br)n1C | 92 to 97 |
| O=C(O)c1cc(Oc2ccc(Cl)cc2Cl)c(O)cc1Cl | 192 to 196 |
| COc1ccc(C2(COC(C)=O)CCC(=O)CC2)cc1 | 86.5 to 88 |
| COCCNC(=O)c1cccc(-c2ccc(F)c3cc(Cc4cc(F)cc(Cl)c4)sc23)c1 | 90 to 110 |
| O=C(O)CC1Cc2ccccc2NC1=O (stereo unspecified) | 145 to 146 |
| N#CC(c1ccc(C(O)C(Cc2cccc(OC(F)(F)C(F)F)c2)NC(=O)c2cccc3c2C=CCCC3)cc1)N1CCCCC1 (racemic) | 152 to 154 |
| CCOP(=O)(CN(CCCc1ccccc1)C(=O)Cc1cc(C(C)(C)C)c(O)c(C(C)(C)C)c1)OCC | 134 to 136 |
| CCN(CC)c1nc(Cc2ccc(OC)c(OC)c2)nc2sc(C#N)c(C)c12 | 107 to 109 |
| CCOC(=O)c1nc(-c2ccc(Cl)cc2Cl)n(-c2ccc(C(F)(F)F)cc2)c1C | 160 to 162 |
| CC(C)(C)c1cc(C(C)(C)C)n(Cc2ccc(CNc3ccc(CCC(=O)O)c(F)c3)cc2)n1 | 146 to 147 |
| CCc1cccc2c(S(=O)(=O)c3ccc(C)cc3)cnnc12 | 133 to 134 |

| SMILES | melting point [°C] |
| --- | --- |
| O=C1Nc2cc3c(cc2O[C@H]1CCCO)CCCC3 | 139 to 140 |
| CC(C)(C)OC(=O)NCCCCCN(OCc1ccccc1)C(=O)CCC(=O)O | 93 to 94 |
| COc1cc2c(cc1OC)CN(CCc1ccc([N+](=O)[O-])cc1)CC2 | 118 to 119 |
| Cc1cn(-c2ccc(N3C[C@H](COS(C)(=O)=O)OC3=O)cc2F)cn1 | 151 to 153 |
| Cc1ccc(C2(c3ccc(C)cc3)OC(=O)N3CCN(C(=O)Nc4ccc(F)cc4F)CC32)cc1 (stereo unspecified) | 120 to 122 |
| COc1ccccc1C(=O)c1cccc(C(=O)O)c1 | 170 to 172 |
| COC(=O)c1nsc2nc3ccccc3n12 | 208 to 209 |
| CCN(CC)C(=O)CCc1nc(-c2ccccc2)nc2ccc(OC)cc12 | 144 |
| Cc1noc(-c2ncn3c2[C@@H]2CCCN2C(=O)c2c(Br)cccc2-3)n1 | 237 to 238 |
| COc1ccc2[nH]cc(CCCN(CC3CC3)C3COc4c(F)ccc(C(N)=O)c4C3)c2c1 (stereo unspecified) | 148 to 154 |
| COc1ccc(C(F)(F)F)cc1Nc1cccn2nc(Nc3cccc(N4CCN(C)CC4)c3)nc12 | 198 to 200 |
| CCN(CC)C(=O)Nc1ccc(S(=O)(=O)n2c(=O)n(C3CCCCCC3)c3cc(Cl)ccc32)c(OC)c1 | 218 |
| COc1ccc(/C=C/C2=NS(=O)(=O)c3ccccc3N2)cc1OC | 276 to 279 |
| CCc1nc(/C=C/c2cn(-c3ccccc3)nc2OCc2ccc(OCc3nc(-c4cccc(CO)c4)oc3C)c(OC)c2)cs1 | 130 to 132 |
| COC(=O)c1ccn(C)c1S(=O)(=O)NC(C)(C)C | 105 to 108 |
| O=C(Cn1cnc2ccccc21)c1ccc(Cl)cc1Cl | 130 to 132 |
| Cc1nc(N)oc1-c1cccc2ccccc12 | 187 to 189 |
| COC(=O)c1ccc(N)c(C(=O)OC)c1 | 127 to 130 |
| O=C(CCN1CCN(c2ncc(F)cn2)CC1)Cc1cccs1 | 77 to 78 |
| CC(=O)Nc1cc2c(cc1[N+](=O)[O-])OC(C)(C)[C@@H](O)[C@@H]2N1CCCC1=O (relative stereo) | 240 to 241 |
| CN1CCN(c2ccc(C(=O)NC3(C(=O)NCC#N)CCCCC3)cc2)CC1 | 218 to 220 |
